Entries after “also recorded” stand apart in the source; their conditions may differ.
Tests used:
[1] = Stability in human serum and plasma in vitro (radio-HPLC); type: in vitro ADME; details: 37 °C
Experimental: An aliquot of the formulated tracer solution (40 µL containing approx. 10 MBq in 0.9% NaCl) was incubated with 200 µL of human plasma (Hölzel Diagnostika Handels GmbH, from CosmoBio USA, Carlsbad, CA, USA) or human serum (Biochrom GmbH, Merck KGaA, Darmstadt, Germany), respectively, at 37 °C. After various time points (5–120 min), aliquots (30 µL) were taken and quenched in methanol or 10% TFA (30 µL). The samples were centrifuged for 3 min, and subsequently the supernatants were analyzed by radio-HPLC (Chromolith RP-18e, 100 × 4.6 mm, 10–100% acetonitrile (with 0.1% TFA) in water (with 0.1% TFA) over 5 min, 4 mL/min).

MCF-7 cells = test: Stability in cells (radio-HPLC of cell lysate); type: in vitro ADME, human; details: 90 min incubation, 37 °C, absence of serum
Experimental: ^18F-TA-Glyco-EE was incubated for 90 min at 37 °C with MCF-7 cells (350,000 cells/well, seeded one day prior to the experiment in 24-well plates) in cell culture medium. After washing twice with ice-cold PBS, the cells were scraped off, and 200 µL PBS was added for resuspension. The cell suspension was transferred to Eppendorf tubes, homogenized using ultrasound (Bandelin sonoplus HD2070 ultrasonic homogenizer, room temperature, BANDELIN electronic GmbH, Berlin, Germany) and then centrifuged. The supernatant was quenched in 10% TFA, and after centrifugation the resulting supernatant was analyzed by radio-HPLC (Chromolith RP-18e, 100 × 4.6 mm, 10–100% acetonitrile (containing 0.1% TFA) in water (containing 0.1% TFA) over 5 min, 4 mL/min).

ER+ T47D tumor slices = test: In vitro autoradiography of T47D tumor slices; type: binding, human; details: 60 min, room temperature, with or without E2 (72 µM)
Experimental: (§1) MCF-7, MDA-MB231 and T47D tumors grown in nude mice were collected and frozen in a hexane/dry ice bath (−70 °C). Tumor slices (14 µm) were prepared on a cryostat microtome HM 500 O (Microm, Walldorf, Germany), thaw-mounted on HistoBond® adhesive glass slides (Marienfeld, Lauda-Königshofen, Germany) and stored at −80 °C. For in vitro autoradiography studies, the tumor tissue sections were thawed and pre-incubated in incubation buffer (50 mM Tris HCl, 5 mM MgCl2, 0.2% bovine serum albumin (BSA), pH 7.4) at room temperature for 15 min. Then, the sections were transferred to incubation buffer containing ^18F-TA-Glyco-EE (3–5 MBq) in a total volume of 70 mL. For the determination of non-specific binding, separate sections were incubated with ^18F-TA-Glyco-EE in the presence of E2 (72 µM). After an incubation time of 60 min, the sections were washed three times with incubation buffer, followed by a short dip in ice-cold distilled water. The slices were carefully dried in a stream of warm air and finally placed on a phosphor imager screen (Fuji Imaging Plate BAS-IP SR 2025 E) overnight prior to readout (30 µm resolution) using the HD-CR-35 Bio scanner (Elysia-Raytest, Straubenhardt, Germany). […] Regions of interest were analyzed from 3–4 tumor slices from the MCF-7, MDA-MB231 and T47D tumors, and mean values of the intensity per area were calculated.

[2] = system: ER- MDA-MB-231 tumor slices; test: In vitro autoradiography of MDA-MB-231 tumor slices; type: binding, human; details: 60 min, room temperature, with or without E2 (72 µM)
Experimental: as §1

[3] = Determination of logD7.4 (n-octanol/PBS); type: physicochemical; details: n-octanol/PBS pH 7.4; mean ± SD, three independent experiments
Experimental: For the determination of the octanol–water coefficient, an aliquot of the radiotracer was added to PBS (500 µL, pH 7.4) and n-octanol (500 µL) in an Eppendorf tube. The mixture was vortexed and subsequently centrifuged, each for 1 min. Three samples (each 100 µL) were taken from both the PBS and the n-octanol layer and measured using a γ-counter (Wallac Wizard, PerkinElmer, Waltham, MA, USA). The logD7.4 was expressed as log(cpmoctanol/cpmPBS) and reported as mean ± SD. The determination of logD7.4 was performed in three independent experiments, each performed in triplicate.

[4] = system: MCF-7 (ER+) tumor-bearing nude mice; test: Small animal PET imaging; type: in vivo
Experimental: Female NMRI nude mice (Crl:NMRI-Foxn1^nu) were purchased from Charles River (Charles River Laboratories Inc., Wilmington, MA, USA) at the age of four weeks and kept in groups of four to five animals in individually ventilated cages in a twelve hours dark/light cycle, with unlimited access to water and standard chow. At the age of nine to ten weeks, one 17β-estradiol pellet per animal (0.72 mg per pellet, 3 mm diameter) with a 60-day release time (Innovative Research of America, Sarasota, FL, USA) was subcutaneously implanted on the back under isoflurane anesthesia. After three days, approximately 2–3 × 10^6 MCF-7, T47D or MDA-MB-231 tumor cells (in 50 µL PBS) were mixed with Matrigel (50 µL, BD Biosciences, Becton, Dickinson and Company, Franklin Lakes, NJ, USA) and injected subcutaneously to the back of the mice. Tumor diameters and weight of the animals were recorded five times a week. Biodistribution or imaging studies were performed three–four weeks after the inoculation of the cells. […] Dynamic images were acquired for 60 min, starting with the injection of the radiotracer. […] Regions of interest (ROIs) were drawn over the tumor, and the mean radioactivity concentration within these regions was obtained from the mean values and calculated as a percentage of the total injected dose per gram tissue (%ID/g).

Structure (SMILES): CC(=O)OC1C(C[18F])OC(n2cc(C3(O)CCC4C5CCc6cc(O)ccc6C5CCC43C)nn2)C(OC(C)=O)C1OC(C)=O (centres unmarked) [^18F-TA-Glyco-EE]
- Stability in human serum and plasma (in words) ([1]; over 120 min, radio-HPLC): rapidly deacetylated in serum and plasma
- Stability in Human Serum or Plasma ([1]; after 30 min, same for serum and plasma, deacetylation observed): 0% after 30 min ^2,5
- Stability in MCF-7 cells (intracellular radioactivity, HPLC) (MCF-7 cells): without any significant deacetylation
- Binding to T47D tumor sections (autoradiography) (ER+ T47D tumor slices): high specific binding
- Binding to MDA-MB-231 tumor sections (autoradiography) [2]: negligible binding
- logD7.4 [3]: 2.3 ± 0.1
- Uptake in MCF-7 tumors (PET) ([4]; 60 min p.i.): around 1 %ID/g
- Tumor uptake, non-treated versus fulvestrant-treated animals (PET) ([4]; fulvestrant 0.5 mg s.c., second scan 48 h later, n = 4): significantly reduced tumor uptake on PET scans in one of the four animals; also recorded: did not show a significant difference
